Data: patent publication US20230416299A1, “COMPOUND AND METHOD FOR THE TREATMENT AND DIAGNOSIS OF NEURODEGENERATIVE CONDITIONS” (Swansea University, priority 2013, published 2023)

Key:
Lxrα = target: T1, Lxrα (Homo sapiens, UniProt Q13133); assay: Lxr-responsive luciferase reporter assay (Lxre + Lxrα) in SN4741 neural cells; assay type: cell-based, mouse; conditions: for Lxrα activation, luciferase activity: 10 μM, 24 h
T1 construct: expressed in transfected cells; host or cells: SN4741 mouse neuronal cell line
T1 sequence (Q13133 1-447): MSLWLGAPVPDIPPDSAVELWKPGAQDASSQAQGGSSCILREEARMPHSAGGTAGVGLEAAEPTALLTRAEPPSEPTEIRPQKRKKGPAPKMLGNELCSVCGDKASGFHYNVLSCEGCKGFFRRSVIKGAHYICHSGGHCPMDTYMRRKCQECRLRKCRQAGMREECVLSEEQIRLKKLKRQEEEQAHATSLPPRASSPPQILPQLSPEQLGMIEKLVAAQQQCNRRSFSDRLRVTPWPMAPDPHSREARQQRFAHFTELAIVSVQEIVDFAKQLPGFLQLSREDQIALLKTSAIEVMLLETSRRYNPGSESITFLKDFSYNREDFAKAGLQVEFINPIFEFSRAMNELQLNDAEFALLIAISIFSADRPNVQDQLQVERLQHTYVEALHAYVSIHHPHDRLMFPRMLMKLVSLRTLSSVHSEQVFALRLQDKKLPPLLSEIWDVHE
Text: (§1) Luciferase Reporter Assay.

Lxrβ = target: T2, Lxrβ (Homo sapiens, UniProt P55055); assay: Lxr-responsive luciferase reporter assay (Lxre + Lxrβ) in SN4741 neural cells; assay type: cell-based, mouse; conditions: SN4741 cells, 10 μM, 24 h
T2 construct: expressed in transfected cells; host or cells: SN4741 mouse neuronal cell line
T2 sequence (P55055 1-460): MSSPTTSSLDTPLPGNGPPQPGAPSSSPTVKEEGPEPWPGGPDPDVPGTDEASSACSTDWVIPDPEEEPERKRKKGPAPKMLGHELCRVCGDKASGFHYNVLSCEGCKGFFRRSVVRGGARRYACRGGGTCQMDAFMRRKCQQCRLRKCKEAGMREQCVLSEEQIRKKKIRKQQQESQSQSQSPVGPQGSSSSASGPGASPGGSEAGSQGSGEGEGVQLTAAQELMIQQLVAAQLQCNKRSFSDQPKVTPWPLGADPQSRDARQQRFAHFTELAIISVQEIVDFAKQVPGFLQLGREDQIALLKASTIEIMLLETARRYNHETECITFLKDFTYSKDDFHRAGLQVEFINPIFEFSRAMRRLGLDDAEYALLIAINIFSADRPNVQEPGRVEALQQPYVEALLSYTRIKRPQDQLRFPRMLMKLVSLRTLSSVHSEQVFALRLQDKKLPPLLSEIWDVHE
Text: as §1

[1] = test system: Islet-1:GFP transgenic zebrafish embryos; assay type: in vivo; conditions: 10 μM
Description: Quantitative PCR. Total RNA was extracted from SN4741 cells and zebrafish treated with the compounds of interest using the RNeasy Mini Kit (Qiagen), 1 μg was treated with RQ1 RNase-free DNase (Promega) and reverse transcribed using Superscript II Reverse Transcriptase (Invitrogen) and random primers (Invitrogen) (RT+ reaction). Parallel reactions without reverse transcriptase enzyme were done as a control (RT− reaction), and Sybergreen real-time quantitative PCR assays were performed. Expression levels were obtained by normalization with the value of the housekeeping gene encoding actin obtained for every sample in parallel assays.
Zebrafish Strain and Mainrenance Zebrafish were raised on a 14/10 h day/night cycle and were kept at 28.5° C. Islet-1:GFP transgenic embryos were obtained via natural spawning and staged in hours or days post fertilization (hpf and dpf) according to Kimmel et al). Embryos older than 24 hpf were treated with 0.03% phenylthiourea (PTU) to inhibit pigmentation. MO injections were performed using splice site specific zebrafish 1xr MO. MO injected embryos were immediately dechorionated and transferred to a 96 well plate and exposed to dimethyl sulfoxide (DMSO) treated or ligand treated medium.
Compound Exposure. Islet-1:GFP embryos were collected by natural mating and immediately (at 1 cell stage) dechorionated and transferred to a 96 well plate. Each of the compounds tested were obtained as 10 mM stock and diluted in embryo medium to a final concentration of 10 μM, and 200 μL was added to each well. DMSO or propan-2-ol treated embryo medium was taken as control. Ligand solutions were replaced every 12 h with fresh ligand solution prepared in PTU treated embryo medium. Embryos were collected at 48 hpf, fixed for 4 h at room temperature with 4% paraformaldehyde and then washed and kept in PBST. Immunocytochemistry was performed using an anti-GFP antibody and fluorescence was viewed and photographed using a Zeiss Axioplan compound microscope and a Zeiss Axiocam digital camera.

[2] = test system: mouse E11.5 brain primary cultures; assay: Mouse E11.5 brain primary cultures (Islet1+, active caspase 3+, BrdU, Nkx6.1 counts); assay type: cell-based; conditions: for Number of Islet1+ cells: wild type cultures, 3 DIV
Description: Primary Brain Cultures. Brains from E11.5 mice were manually dissected, plated on poly-D-lysine (150,000 cells/cm2) and grown in serum-free N2 media consisting of 1:1 mixture of F12 and DMEM with 10 ng/mL insulin, 100 μg/mL apo-transferrin, 100 μM putrescine, 20 nM progesterone, 30 nM selenium, 6 mg/mL glucose, and 1 mg/mL BSA. Cells were treated for 3 days in vitro (DIV) with the compounds of interest, fixed with 4% PFA and processed for staining using appropriate antibodies.
For BrdU analysis, cells were treated with BrdU one hour after plating and media was replaced with fresh medium after 16 h. After a further 2 days in culture, cells were treated for 30 min with 2N HCl and then immunocytochemistry was performed to evaluate the number of double BrdU+;Islet1+ cells (a measure of motor neuron neurogenesis). Hoechst staining was performed by permeabilizing cells with a 0.3% Triton-X 100/PBS solution for 5 min followed by incubation with Hoechst 33258 (Sigma) for 10 min.
Antibodies and Detection Procedures. Cells were fixed in 4% PFA, washed in PBS and blocked in 5% normal goat serum/PBS for 1 h at room temperature. Primary antibodies were diluted in PBS (pH 7.4), 0.3% Triton X-100, 1% BSA and incubations were carried out overnight at +4° C. or at room temperature for 2 h. The antibodies used were anti-: BrdU (1:400; Abeam), Islet-1 (1:100; Developmental Studies Hybridoma Bank), cleaved caspase-3 (Asp175) (1:100; Cell Signaling Technology), tyrosine hydroxylase (TH;1:1000; Pel-Freeze) GABA (1:1,000; Sigma), Brn3a (1:250; Millipore), Nkx6.1 (1:200; Novus Biologicals), choline acetyltransferase (ChAT; 1:500; Millipore) and appropriate secondary antibodies (Jackson ImmunoResearch or Alexa). Cells positive for the corresponding marker were counted directly at the microscope at a magnification of 20 x. Cells were counted in every well, in eight consecutive fields (going from one side of the well to the other, passing through the center), in three different wells per experiment and in three different experiments per condition. Random pictures of the wells were taken for every condition to document the result, and representative pictures were subsequently selected to represent the quantitative data. Photos were acquired with a Zeiss Axioplan microscope and a Hamamatsu camera C4742-95 using the Openlab software.

SMILES	Lxrα activation, luciferase activity (Lxrα)	Lxrβ activation, luciferase activity (Lxrβ)	also measured
CC(CCC[C@@H](C)[C@H]1CC[C@H]2[C@@H]3C(=O)C=C4C[C@@H](O)CC[C@]4(C)[C@H]3CC[C@]12C)C(=O)O (stereo partly drawn) [3βH, 7O-CA, 3β-hydroxy-7-oxocholest-5-en-26-oic acid]	have the ability to activate both Lxrs	have the ability to activate both Lxrs	Islet-1 mRNA and protein level (qPCR, western blot) [1]: increase in the level of Islet-1 mRNA and protein; abca1 mRNA expression in vivo [1]: enhanced expression of abca1; Islet-GFP expression in cranial nerves ([1]; 48 hpf): increased Islet-GFP expression; Number of Islet1+ cells in cranial nerves (III, IV, V, VII, X) ([1]; 48 hpf): no significant effect on the number of Islet1+ cells; Islet-GFP levels after lxr morpholino (MO) injection ([1]; lxr MO vs control scrambled MO): abolished the in vivo increase in Islet-GFP levels; Number of other midbrain neurons (TH+ dopamine, GABAergic, red nucleus) [2]: did not affect the number of other midbrain neurons; Number of Islet1+ cells [2]: increased the number of Islet1+ oculomotor cells in the cultures; Effect on Islet1+ cells with Lxr antagonist GGPP ([2]; wt cultures, GGPP 10 μM): blocked by the Lxr antagonist GGPP; Number of active caspase-3+ cells ([2]; wt cultures, 10 μM 3β,7α-diHCA, 3βH,7O-CA, 25-HC, low concentrations of 3β,7β-diHCA, 3β-HCA): did not affect the number of active caspase-3+ cells
CC(C)CCC[C@@H](C)[C@H]1CC[C@H]2[C@@H]3CC[C@H]4CC(=O)CC[C@]4(C)[C@H]3CC[C@]12C [5α-cholestan-3-one]	None of these compounds showed significant activity		
CC(C)CCC[C@@H](C)[C@H]1CC[C@H]2[C@@H]3CC[C@H]4C[C@@H](O)CC[C@]4(C)[C@H]3CC[C@]12C [5α-cholestan-3β-ol]	None of these compounds showed significant activity		
CC(C)CCC[C@@H](C)[C@H]1CC[C@H]2[C@@H]3[C@H](O)CC4=CC(=O)CC[C@]4(C)[C@H]3C[C@H](O)[C@]12C [7α,12α-diHCO, 7α,12α-Dihydroxycholest-4-en-3-one]	None of these compounds showed significant activity		
CC(CO)CCC[C@@H](C)[C@H]1CC[C@H]2[C@@H]3[C@H](O)C=C4C[C@@H](O)CC[C@]4(C)[C@H]3CC[C@]12C (stereo partly drawn) [7α,26-diHC, cholest-5-ene-3β,7α,26-triol]	none of which was found to show significant activity	none of which was found to show significant activity	
CC(CO)CCC[C@@H](C)[C@H]1CC[C@H]2[C@@H]3[C@H](O)CC4=CC(=O)CC[C@]4(C)[C@H]3CC[C@]12C (stereo partly drawn) [7α,26-diHCO, 7α,26-dihydroxycholest-4-en-3-one]	none of which was found to show significant activity	none of which was found to show significant activity	
CC(C)CCC[C@@H](C)[C@H]1CC[C@H]2[C@@H]3[C@H](O)C=C4C[C@@H](O)CC[C@]4(C)[C@H]3CC[C@]12C [7α-HC, Cholest-5-ene-3β,7α-diol]	None of these compounds showed significant activity		
CC(C)CCC[C@@H](C)[C@H]1CC[C@H]2[C@@H]3[C@H](O)CC4=CC(=O)CC[C@]4(C)[C@H]3CC[C@]12C [7α-HCO, 7α-Hydroxycholest-4-en-3-one]	None of these compounds showed significant activity		
CC(CCC[C@@H](C)[C@H]1CC[C@H]2[C@@H]3[C@H](O)CC4=CC(=O)CC[C@]4(C)[C@H]3CC[C@]12C)C(=O)O (stereo partly drawn) [7αH,3O-CA, 7α-hydroxy-3-oxocholest-4-en-26-oic acid]	none of which was found to show significant activity	none of which was found to show significant activity	abca1 mRNA expression in vivo [1]: not; Islet-GFP expression in cranial nerves ([1]; 48 hpf): failed to regulate Islet-GFP expression
CC(C)CCC[C@@H](C)[C@H]1CC[C@H]2[C@@H]3[C@@H](O)C=C4C[C@@H](O)CC[C@]4(C)[C@H]3CC[C@]12C [7β-HC, Cholest-5-ene-3β,7β-diol]	None of these compounds showed significant activity		
CC(CCC[C@@H](C)[C@H]1CC[C@H]2[C@@H]3[C@@H](O)CC4=CC(=O)CC[C@]4(C)[C@H]3CC[C@]12C)C(=O)O (stereo partly drawn) [7βH,3O-CA, 7β-hydroxy-3-oxocholest-4-en-26-oic acid]	none of which was found to show significant activity	none of which was found to show significant activity	
CC(C)CC[C@@H](O)[C@@H](C)[C@H]1CC[C@H]2[C@@H]3CC=C4C[C@@H](O)CC[C@]4(C)[C@H]3CC[C@]12C [22R-HC, 22R-hydroxycholesterol, reference compound]			Lxr luciferase activity with the Lxr antagonist GGPP (Lxrα; metabolite 10 μM + GGPP 10 μM): similarly blocked; Number of Islet1+ cells [2]: does not show an effect towards Islet1+ cells
CC(C)[C@@H](O)CC[C@@H](C)[C@H]1CC[C@H]2[C@@H]3CC=C4C[C@@H](O)CC[C@]4(C)[C@H]3CC[C@]12C [24S-HC, Cholest-5-ene-3β,24S-diol]	activate Lxr	activate Lxr	
C[C@@H](CO)CCC[C@@H](C)[C@H]1CC[C@H]2[C@@H]3CC=C4C[C@@H](O)CC[C@]4(C)[C@H]3CC[C@]12C [26-HC, cholest-(25R)-5-ene-3β,26-diol]	no a significant effect	no a significant effect	Number of Islet1+ cells [2]: no effect on the number of Islet1+ cells
CC(C)CCC[C@@H](C)[C@H]1CC[C@H]2[C@@H]3CCC4=CC(=O)CC[C@]4(C)[C@H]3CC[C@]12C [cholest-4-en-3-one]	None of these compounds showed significant activity		
CC(C)CCC[C@@H](C)[C@H]1CC[C@H]2[C@@H]3C=CC4=CC(=O)CC[C@]4(C)[C@H]3CC[C@]12C [cholesta-4,6-dien-3-one]	None of these compounds showed significant activity		
